ChEMBL document CHEMBL1124803, “Evolution of a series of peptidoleukotriene antagonists: synthesis and structure/activity relationships of 1,3,5-substituted indoles and indazoles” (J Med Chem, 1990)
Activity calls are given as the source filed them. The rule behind the calls is not given here.

How the values were obtained:
[1] = target: T1, Cysteinyl leukotriene receptor 1 (Cavia porcellus, UniProt Q2NNR5); assay: Displacement of [3H]LTD4 on guinea pig lung parenchymal membranes; format: tissue-based, Lung parenchyma
T1 sequence (Q2NNR5 whole entry): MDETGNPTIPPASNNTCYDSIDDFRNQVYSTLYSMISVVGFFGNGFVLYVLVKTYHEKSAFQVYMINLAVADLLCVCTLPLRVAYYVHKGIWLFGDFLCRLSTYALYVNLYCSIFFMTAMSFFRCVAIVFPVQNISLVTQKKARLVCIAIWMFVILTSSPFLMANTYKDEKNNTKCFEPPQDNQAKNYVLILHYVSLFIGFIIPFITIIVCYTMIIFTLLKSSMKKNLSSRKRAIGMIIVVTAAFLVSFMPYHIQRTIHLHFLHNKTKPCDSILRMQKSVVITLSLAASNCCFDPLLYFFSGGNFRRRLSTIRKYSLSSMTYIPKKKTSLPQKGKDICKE

[2] = target: T1, Cysteinyl leukotriene receptor 1; assay: Inhibition constant for displacement of [3H]LTD4 on guinea pig lung parenchymal membranes.; format: tissue-based, Lung parenchyma
Cavia porcellus [3] = organism: Cavia porcellus; assay: Inhibition of peptidoleukotriene LTE4 induced contraction of guinea pig tracheal spirals at the concentration of 1 uM.; format: functional; conditions: Trachea
Cavia porcellus [4] = organism: Cavia porcellus; assay: Inhibition of peptidoleukotriene LTE4 induced contraction of guinea pig tracheal spirals at the concentration of 100 uM.; format: functional; conditions: Trachea
[5] = target: Cysteinyl leukotriene receptor 1 (Cavia porcellus); assay: Inhibition constant for displacement of [3H]LTD4 on guinea pig lung parenchymal membranes.
Cavia porcellus [6] = assay: Effective dose of compound was measured in vivo for blocking LTD4 induced dyspnea after po administration.; format: functional
[7] = tested on: Cysteinyl leukotriene receptor 1 (Cavia porcellus); assay: Dissociation constant (Kb) against LTD4
Cavia porcellus [8] = organism: Cavia porcellus; assay: Inhibition of peptidoleukotriene LTE4 induced contraction of guinea pig tracheal spirals at the concentration of 3.3 uM; Not significant; format: functional; conditions: Trachea
Cavia porcellus [9] = assay: Percent protection of animals against aerosolized LTD4-induced dyspnea at the concentration of 1.8 mg/kg.; format: functional
Cavia porcellus [10] = assay: Percent protection of animals against aerosolized LTD4-induced dyspnea at the concentration of 0.6 mg/kg.; format: functional; conditions: inhaled or nasal
Cavia porcellus [11] = assay: Percent protection of animals against aerosolized LTD4-induced dyspnea at the concentration of 0.6 mg/kg; Not significant; format: functional, organism-based; parameters: dose 0.6 mg/kg
Cavia porcellus [12] = organism: Cavia porcellus; assay: Inhibition of peptidoleukotriene LTE4 induced contraction of guinea pig tracheal spirals at the concentration of 3.3 uM.; format: functional; conditions: Trachea

Row | SMILES | Ki [5] | pKB [7] | further results
1 | COc1cc(C(=O)O)ccc1Cn1ncc2ccc(NC(=O)OC3CCCC3)cc21 | – | – | Ki [1]: 80 nM
2 | CCCCCC(=O)Nc1ccc2c(c1)c(Cc1ccc(C(=O)O)cc1OC)cn2C | – | – | Ki [2]: 1900 nM; inhibition at 1 µM (Cavia porcellus [3]): 77%
3 | COc1cc(C(=O)O)ccc1Cc1cn(C)c2ccc(NC(=O)CC3CCCC3)cc12 | – | – | inhibition at 100 µM (Cavia porcellus [4]): 94%; Ki [2]: 80 nM
4 | COc1cc(C(=O)O)ccc1Cn1ncc2ccc(NC(=O)CC3CCCC3)cc21 | – | – | Ki [1]: 50 nM
5 | COc1cc(C(=O)NS(=O)(=O)c2ccccc2C)ccc1Cc1nn(C)c2ccc(NC(=O)OC3CCCC3)cc12 | 0.3 nM | – | ED50 (Cavia porcellus [6]): 0.5 mg/kg
6 | COc1cc(C(=O)NS(=O)(=O)C(C)C)ccc1Cc1cn(Cc2cccc(C#N)c2)c2ccc(NC(=O)CC3CCCC3)cc12 | 6.8 nM | 9.28 | –
7 | C=CCn1cc(Cc2ccc(C(=O)O)cc2OC)c2cc(NC(=O)CCCCC)ccc21 | – | – | inhibition at 1 µM (Cavia porcellus [3]): 43%
8 | CCCCCC(=O)Nc1ccc2c(c1)c(Cc1ccc(C(=O)O)cc1OC)cn2CC(=O)O | – | – | inhibition (Cavia porcellus [8]): inactive
9 | COc1cc(C(=O)NS(C)(=O)=O)ccc1Cc1cn(Cc2cccc(C#N)c2)c2ccc(NC(=O)CC3CCCC3)cc12 | 5.6 nM | 9 | –
10 | COc1cc(C(=O)NS(=O)(=O)c2ccccc2Cl)ccc1Cc1cn(C)c2ccc(NC(=O)CC3CCCC3)cc12 | 0.3 nM | 9.85 | –
11 | COc1cc(C(=O)NS(=O)(=O)c2ccccc2)ccc1Cc1cn(C)c2ccc(NC(=O)CC3CCCC3)cc12 | – | 9.8 | ED50 (Cavia porcellus [6]): 1 mg/kg; Ki [1]: 0.3 nM
12 | COc1cc(C(=O)NS(=O)(=O)c2ccccc2C)ccc1Cc1nn(C)c2ccc(NC(=O)CC3CCCC3)cc12 | 0.3 nM | – | protection at 1.8 mg/kg (Cavia porcellus [9]): 100%; protection at 0.6 mg/kg (Cavia porcellus [10]): 47%
13 | COc1cc(C(=O)NS(=O)(=O)c2ccccc2C)ccc1Cc1cn(C)c2ccc(NC(=O)NC3CCCC3)cc12 | – | 9.31 | ED50 (Cavia porcellus [6]): 0.9 mg/kg; Ki [1]: 1.4 nM
14 | COc1cc(C(=O)O)ccc1Cn1ccc2ccc(NC(=O)CC3CCCC3)cc21 | – | 7.68 | Ki [1]: 200 nM
15 | CCCc1c(OCCCCc2nnn[nH]2)ccc(C(C)=O)c1O [TOMELUKAST] | – | – | Ki [1]: 2820 nM
16 | COc1cc(C(=O)NS(=O)(=O)c2ccccc2C)ccc1Cc1cn(C)c2ccc(NC(=O)CC3CCCC3)cc12 | – | 9.64 | ED50 (Cavia porcellus [6]): 0.2 mg/kg; Ki [1]: 0.5 nM

Row | SMILES | Ki [5] | pKB [7] | further results
17 | COc1cc(C(=O)NS(=O)(=O)c2ccccc2)ccc1Cc1c[nH]c2ccc(NC(=O)OC3CCCC3)cc12 | 1.4 nM | 9.8 | –
18 | COc1cc(C(=O)NS(=O)(=O)c2ccccc2Br)ccc1Cc1cn(C)c2ccc(NC(=O)CC3CCCC3)cc12 | 0.5 nM | 10.1 | –
19 | COc1cc(C(=O)NS(=O)(=O)c2ccccc2Cl)ccc1Cc1nn(C)c2ccc(NC(=O)NC3CCC3)cc12 | 0.1 nM | – | ED50 (Cavia porcellus [6]): 1 mg/kg
20 | COc1cc(C(=O)NS(=O)(=O)c2ccccc2)ccc1Cc1cn(C)c2ccc(NC(=O)NC3CCCC3)cc12 | – | – | ED50 (Cavia porcellus [6]): ~35 mg/kg; Ki [1]: 0.8 nM
21 | CCCCCC(=O)Nc1ccc2c(c1)c(Cc1ccc(C(=O)O)cc1OC)cn2Cc1ccccc1 | – | – | inhibition at 1 µM (Cavia porcellus [3]): 38%
22 | CCCC(CC)C(=O)Nc1ccc2c(c1)c(Cc1ccc(C(=O)O)cc1OC)cn2C (stereo unspecified) | – | – | Ki [2]: 1830 nM
23 | COc1cc(C(=O)NS(=O)(=O)c2ccccc2Cl)ccc1Cc1cn(C)c2ccc(NC(=O)NC3CCCC3)cc12 | 0.7 nM | 10.2 | –
24 | COc1cc(C(=O)NS(=O)(=O)c2ccccc2Cl)ccc1Cc1nn(C)c2ccc(NC(=O)CC3CCCC3)cc12 | 0.3 nM | – | protection at 0.6 mg/kg (Cavia porcellus [10]): 48%
25 | COc1cc(C(=O)NS(=O)(=O)c2ccccc2Cl)ccc1Cc1nn(C)c2ccc(NC(=O)CC3CCCCC3)cc12 | 0.25 nM | – | ED50 (Cavia porcellus [11]): inactive; protection at 1.8 mg/kg (Cavia porcellus [9]): 71%
26 | COc1cc(C(=O)NS(=O)(=O)c2ccccc2C)ccc1Cc1c[nH]c2ccc(NC(=O)CC3CCCC3)cc12 | – | 9.69 | ED50 (Cavia porcellus [6]): 1.3 mg/kg; Ki [1]: 1 nM
27 | CCCCCC(=O)Nc1ccc2[nH]cc(Cc3ccc(C(=O)O)cc3OC)c2c1 | – | – | inhibition at 3.3 µM (Cavia porcellus [12]): 64%
28 | COc1cc(C(=O)O)ccc1Cc1nn(C)c2ccc(NC(=O)OC3CCCC3)cc12 | – | – | Ki [1]: 160 nM
29 | COc1cc(C(=O)NS(=O)(=O)c2ccccc2C)ccc1Cc1cn(C)c2ccc(NC(=O)OC3CCCC3)cc12 [ZAFIRLUKAST] | – | – | ED50 (Cavia porcellus [6]): 0.3 mg/kg
30 | COc1cc(C(=O)O)ccc1Cc1cn(C)c2ccc(NC(=O)NC3CCCC3)cc12 | – | – | Ki [2]: 1120 nM
31 | COCCn1cc(Cc2ccc(C(=O)O)cc2OC)c2cc(NC(=O)OC3CCCC3)ccc21 | – | – | Ki [2]: 41 nM

More lines, main results first:

Row | Ki [5] | pKB [7] | SMILES | further results
32 | 71 nM | – | CCn1cc(Cc2ccc(C(=O)O)cc2OC)c2cc(NC(=O)CC3CCCC3)ccc21 | –
33 | – | 7.32 | COc1cc(C(=O)O)ccc1Cc1c[nH]c2ccc(NC(=O)OC3CCCC3)cc12 | Ki [2]: 236 nM
34 | 0.25 nM | – | COc1cc(C(=O)NS(=O)(=O)c2ccccc2)ccc1Cc1nn(C)c2ccc(NC(=O)OC3CCCC3)cc12 | –
35 | 0.8 nM | 9.69 | COc1cc(C(=O)NS(=O)(=O)c2ccccc2)ccc1Cc1cn(C)c2ccc(NC(=O)OC3CCCC3)cc12 | ED50 (Cavia porcellus [6]): 2.5 mg/kg
36 | 70 nM | – | COc1cc(C(=O)O)ccc1Cc1cn(Cc2ccccc2)c2ccc(NC(=O)CC3CCCC3)cc12 | –
37 | 0.2 nM | 9.39 | COCCn1cc(Cc2ccc(C(=O)NS(=O)(=O)c3ccccc3)cc2OC)c2cc(NC(=O)OC3CCCC3)ccc21 | ED50 (Cavia porcellus [6]): 1.1 mg/kg
38 | 57 nM | – | COc1cc(C(=O)O)ccc1Cc1cn(CC2CC2)c2ccc(NC(=O)OC3CCCC3)cc12 | –
39 | – | 7.8 | COc1cc(C(=O)O)ccc1Cn1ccc2ccc(NC(=O)OC3CCCC3)cc21 | Ki [1]: 160 nM
40 | – | 7.84 | COc1cc(C(=O)O)ccc1Cc1cn(C)c2ccc(NC(=O)OC3CCCC3)cc12 | inhibition at 100 µM (Cavia porcellus [4]): 75%; Ki [2]: 157 nM
41 | – | 8.44 | CCCn1cc(Cc2ccc(C(=O)NS(=O)(=O)c3ccccc3)cc2OC)c2cc(NC(=O)OC3CCCC3)ccc21 | ED50 (Cavia porcellus [6]): 1 mg/kg
42 | – | 7.72 | CCCn1cc(Cc2ccc(C(=O)O)cc2OC)c2cc(NC(=O)OC3CCCC3)ccc21 | Ki [2]: 58 nM
43 | – | 9.2 | CCCn1cc(Cc2ccc(C(=O)NS(=O)(=O)c3ccccc3)cc2OC)c2cc(NC(=O)NC3CCCC3)ccc21 | Ki [1]: 0.5 nM
44 | 53 nM | 7.67 | COc1cc(C(=O)O)ccc1Cc1cn(C2CCCC2)c2ccc(NC(=O)OC3CCCC3)cc12 | –
45 | 0.3 nM | – | COc1cc(C(=O)NS(=O)(=O)c2ccccc2Br)ccc1Cc1nn(C)c2ccc(NC(=O)OC3CCCC3)cc12 | ED50 (Cavia porcellus [6]): 1.1 mg/kg
46 | 0.3 nM | – | COc1cc(C(=O)NS(=O)(=O)c2ccccc2Cl)ccc1Cc1nn(C)c2ccc(NC(=O)OC3CCCC3)cc12 | ED50 (Cavia porcellus [6]): 1 mg/kg
47 | 10 nM | 8.55 | COc1cc(C(=O)O)ccc1Cc1cn(Cc2cccc(C#N)c2)c2ccc(NC(=O)CC3CCCC3)cc12 | –
48 | 132 nM | – | COc1cc(C(=O)O)ccc1Cc1nn(C)c2ccc(NC(=O)CC3CCCC3)cc12 | –
49 | 67 nM | 7.84 | COc1cc(C(=O)NS(=O)(=O)c2ccccc2)ccc1Cc1cn(C2CCCC2)c2ccc(NC(=O)OC3CCCC3)cc12 | –
50 | 84 nM | – | CCCn1cc(Cc2ccc(C(=O)O)cc2OC)c2cc(NC(=O)CC3CCCC3)ccc21 | –
